Earlier results, collected in patent US20130331400A1, “METHOD FOR PRODUCING INDIGO-PLANT LEAF EXTRACT” (SUNSTAR INC.,, priority 2011, published 2013).

Experiments:
[1] = system: type IV allergic reactions; conditions: reported in PTL 2
[2] = general statement in background art
[3] = system: fungi of the genus Malassezia; conditions: reported in PTL 1

O=C1c2ccccc2-n2c1nc1ccccc1c2=O [tryptanthrin]
Effect on type IV allergic reactions (in words) [1]: effect of suppressing type IV allergic reactions
Light stability of tryptanthrin (in words) [2]: poor light stability
Antibacterial action against fungi of the genus Malassezia (in words) [3]: has an antibacterial action against fungi of the genus Malassezia
